Measured values from PMC4203401 (Journal of Medicinal Chemistry, 2014).

Key:
[1] = target: HIV-1 RT-associated RNase H activity (Human immunodeficiency virus type 1 group M subtype B, UniProt P04585); experiment: HIV-1 RT RNase H inhibition; assay type: biochemical
[2] = target: polymerase function of RT (Human immunodeficiency virus type 1 group M subtype B, UniProt P04585); experiment: HIV-1 RT polymerase inhibition; assay type: biochemical
HTLV-IIIB = conditions: read-out: EC50, originally reported; HTLV-IIIB-based infection assay; ref 19b; cited from earlier work
HIV-1(IIIB) = experiment: HIV-1 replication inhibition in HeLa-CD4-LTR-β-gal cells; assay type: cell-based
[3] = target: HIV-1 IN (rIN), strand transfer (Human immunodeficiency virus type 1 group M subtype B, UniProt P04585); experiment: HIV-1 IN gel-based assay, strand transfer; assay type: biochemical; conditions: IC50 for strand transfer

| SMILES | Ability to inhibit RNase H [1] | Inhibition of polymerase function of RT (inactive up to) [2] [µM] | IC50 [3] [nM] | other results |
| --- | --- | --- | --- | --- |
| Cc1nnc(C(=O)NC(C)(C)c2nc(C(=O)NCc3ccc(F)cc3)c(O)c(=O)n2C)o1 [Compound 2, raltegravir] | inactive |  |  |  |
| C[C@@H]1CCO[C@H]2Cn3cc(C(=O)NCc4ccc(F)cc4F)c(=O)c(O)c3C(=O)N12 [Compound 3, dolutegravir] | inactive |  |  |  |
| O=C(O)/C(O)=C/C(=O)c1cn(Cc2ccc(F)cc2)c2cc(N3CCCC3)ccc2c1=O [Compound 7b, reference compound] |  | > 40 |  | EC50 (HTLV-IIIB): 170 nM |
| CCOC(=O)/C(O)=C/C(=O)c1cn(Cc2ccc(F)cc2)c2cc(N(C)C)ccc2c1=O [Compound 11g, 4-[1-[(4-Fluorophenyl)methyl]-7-(dimethylamino)-4-(1H)-quinolinon-3-yl]-2-hydroxy-4-oxo-2-butenoic Acid Ethyl Ester] |  |  |  | SI, selectivity index (CC50/EC50) (HIV-1(IIIB); CC50/EC50 in HeLa cells): 20 |
| O=C(O)/C(O)=C/C(=O)c1cn(Cc2ccc(F)cc2)c2cc(N3CCOCC3)ccc2c1=O [Compound 12f, 4-[1-[(4-Fluorophenyl)methyl]-7-(morpholin-4-yl)-4-(1H)-quinolinon-3-yl]-2-hydroxy-4-oxo-2-butenoic Acid] |  | > 40 | < 100 |  |
| O=C(O)/C(O)=C/C(=O)c1cn(Cc2ccc(F)cc2)c2cc(N3CCN(CCCCl)CC3)ccc2c1=O [Compound 12i, 4-[1-[(4-Fluorophenyl)methyl]-7-[N-(3-chloroprop-1-yl)piperazin-1-yl]-4-(1H)-quinolinon-3-yl]-2-hydroxy-4-oxo-2-butenoic Acid] |  | > 40 | < 100 | Block of HIV-1 replication (HIV-1(IIIB); HeLa-CD4-LTR-β-gal cells, HIV-1(IIIB)): unable to block replication |
